{
  "source": "paper PMC6367500",
  "about": "“18β-glycyrrhetyl-3-O-sulfate would be a causative agent of licorice-induced pseudoaldosteronism” (Scientific Reports, 2019)",
  "key": {"anti-3MGA-mAb [1]": {"system": "anti-3MGA-mAb", "test": "Competitive ELISA using anti-3MGA-mAb", "format": "binding", "details": "specificity to 3MGA calibrated to 100%, n = 1", "protocol": "(§1) Figure 5 Dot-blot analysis and ELISA detection range of GL metabolites using anti-3MGA-monoclonal antibody (mAb). GL metabolites (1 µg each) were spotted on a PES membrane, and colored using an anti-3MGA-mAb (A). Competitive ELISA using anti-3MGA-mAb for GL metabolites was performed. Data are represented from a single analysis (n = 1) (B). […] Data are represented as mean ± S.D. (n = 3). Two-way ANOVA indicated a significant difference between GA and 3 (F1,36 = 4441, P < 0.001), concentrations (F8,36 = 315, P < 0.001), and their interactions (F8,36 = 281, P < 0.001). The calibrated line for the absorbance-concentration profile of 3 was calculated by the linear least-squares method, and the regression formula is shown in graph (C).\nWhen the specificity of the mAb to 3MGA was calibrated to 100%, the cross-reactivity for GL, GA, 1, 2, and 3 was 0.23%, 2.2%, 4.8%, 4.0%, and 23%, respectively. […] We confirmed the selectivity of the anti-3MGA-mAb in discriminating between 3 and GA and established the detectable measurement range for 3 in this ELISA system.\n3MGA-HSA (1 µg/ml in 50 mM carbonate buffer, pH 9.6) was added into a 96-well plate (Nagel Nunc, Penfield, NY, USA) (100 µl in a well) and incubated at 37 °C for 1 h. After the removal of 3MGA-HSA, the wells were washed three times with T-PBS (200 µl in a well). The wells were incubated with 300 µl in a well of 5% skim milk at 4 °C overnight. After the wells had been washed with T-PBS three times, the sample solution diluted with Can Get Signal® Solution 1 (Toyobo Co., Ltd., Osaka, Japan) (50 µl in a well) and anti-3MGA-mAb (1:4,000 dilution with Can Get Signal® Solution 1) (50 µl in a well) were added to the wells, and the plate was incubated at 37 °C for 1 h. After the wells had been washed with T-PBS three times, HRP-labeled goat anti-mouse IgG (Fc specific) antibody (Sigma, 1:20,000 dilution with Can Get Signal® Solution 2) was added into the wells (100 µl in a well) and the plate was incubated at 37 °C for 1 h. Next, the wells were washed with T-PBS three times and the substrate solution (3,3′,5,5′-tetramethylbensidine, TMB solution; Fujifilm Wako Pure Chemical Corporation, Osaka, Japan) was added to the wells (100 µl in a well), followed by incubation at room temperature for 5 min. Then, the stop solution (0.5 M sulfuric acid) was added to the wells (100 µl in a well) and the optical density was measured at 450 nm/630 nm."}, "[2]": {"test": "Concentrations of GL metabolites in plasma of a patient with pseudoaldosteronism (LC-MS/MS)", "format": "in vivo, human", "from_the_text": "The patient was a person who had taken a Kampo formula containing licorice for 3 years (1.5 g of licorice for 1 year and 2 months, and 3 g for 1 year and 10 months). On day 0, we found a low plasma potassium level (2.1 mEq/l) and a high creatinine kinase level (364 U/l). Since low plasma renin activity and a low aldosterone level were also found, the patient was diagnosed with pseudoaldosteronism due to licorice. The administration of the Kampo formula was stopped and potassium supplementation of up to 100 mEq/day was started. In the plasma collected on day 0, we detected compound 3 at 8.6 µM, GA at 1.3 µM, and 2 at 87 nM, while 1, GL and 3MGA were not detected. On day 5, the plasma potassium level was still 2.1 mEq/l and potassium supplementation was continued. However, the plasma concentrations of 3 and GA had decreased to 3.6 µM and 0.65 µM, respectively. 2, 1, GL, and 3MGA were not detected. On day 13, the plasma potassium level was increased to 2.8 mEq/l, and the concentrations of 3 and GA were 61 nM and 11 nM, respectively. On day 14, the plasma potassium level was 3.4 mEq/l, and the concentration of 3 was 57 nM; GA was not detected. On day 18, the plasma potassium level had recovered to a normal level (4.9 mEq/l), so potassium supplementation was stopped.\nFemale SD rats or EHBRs (9-week-old) were anesthetized by an intraperitoneal (i.p.) injection of urethane (1 g/kg) and their jugular veins were exposed. GA suspended in 0.5% CMC was then administered orally (200 mg/kg) to the unconscious rats, and blood samples were collected from the jugular vein; urine samples were collected using a metabolic cage at an appropriate time over a 12-h period. […] Feces were homogenized in phosphate-buffered saline (PBS; 0.15 M, pH 7.2), centrifuged (1.2 × 10^4 g, 10 min), and the supernatants were collected. After 1 week as a washout period, female SD rats were anesthetized by an i.p. injection of urethane (1 g/kg) and their biliary tract was cannulated. GA (0.2 mg/kg) was injected into the jugular vein, and the bile was collected every hour for 4 h. Aliquots (10 µl) of plasma, urine, homogenate of feces, or bile were mixed with 20 µl of subtilisin (0.91 U/ml) and incubated at 37 °C for 30 min, followed by the addition of 70 µl of astragaloside IV solution (1 µg/ml in ethanol containing 0.5% formic acid, used as internal standard), and kept at −20 °C for 30 min. […] The transitions (precursor to daughter) monitored and retention times were as follows: ESI(+) 743.4 to 567.5 m/z for compound 1 (5.5 min), ESI(−) 565.5 to 96.5 m/z for 2 (6.2 min), ESI(−) 549.5 to 96.5 m/z for 3 (8.1 min), ESI(+) 647.6 to 453.6 m/z for 3MGA (9.2 min), ESI(+) 471.3 to 91.0 m/z for GA (8.8 min), ESI(+) 823.5 to 453.6 m/z for GL (10.8 min), and ESI(+) 785.4 to 143.0 m/z for astragaloside IV (3.0 min). Linear regressions over the concentration range of 32 nM to 20 µM for each compound were examined using the peak-area ratio of the compounds to their internal standards and the least-squares method (r^2 > 0.98).\nThe patient was a person. They provided written informed consent to the use of their blood and urine samples for this study, which was approved by the Independent Ethics Committee of Kameda General Hospital, in accordance with the Declaration of Helsinki. Their anamnesis was follows: hypertension, systemic lupus erythematosus, and antiphospholipid antibody syndrome (for 15 years), necrotic pulmonary aspergillosis (6 years ago), cerebral infarction (14 and 4 years ago, two times), and stomach cancer (3 years ago). After the operation for stomach cancer, the patient had been treated with Kracie Juzentaihoto Extract Granules for Ethical Use (Kracie Pharmaceuticals., Tokyo, Japan). […]"}, "anti-3MGA-mAb [3]": {"system": "anti-3MGA-mAb", "test": "Dot-blot analysis using anti-3MGA-mAb", "format": "binding", "details": "1 µg spotted on PES membrane, imaging analysis", "protocol": "We confirmed the cross-reactivity of anti-3MGA-mAb against these GL metabolites. GL, GA, 3MGA, and compounds 1, 2, and 3 (1 µg each) were spotted on a polyethersulfone (PES) membrane, fixed onto the membrane, and colored using an anti-3MGA-mAb (Fig. 5A). […] Thus, the anti-3MGA-mAb cross-reacted to some extent with other metabolites of GL.\nas §1\nAnti-3MGA-mAb and 3MGA-human serum albumin (HSA)-conjugate were developed by the same protocols established in our previous studies[22],[23]. GL, GA, 3MGA, 1, 2, and 3 (1 µg each) were spotted on a Mustang^TM E positively charged PES membrane (Pall Co., East Hills, NY, USA). The membrane was then immersed into 0.1 M MES buffer (pH 4.7) containing 2% EDC and 1% NHS, and kept at room temperature for 1 h to activate the carboxyl group. After washing with distilled water, PBS containing 1% bovine serum albumin (BSA) was added to the membrane, which was shaken at room temperature for 2 h for fixation. Next, the membrane was blocked with PBS containing 5% skim milk (Morinaga-milk, Tokyo, Japan) and 0.1% Tween 20 at 4 °C overnight to reduce nonspecific adsorption. After washing twice with PBS containing 0.1% Tween 20 (T-PBS) for 5 min, the membrane was incubated with anti-3MGA-mAb and kept at room temperature for 3 h with constant agitation. The membrane was then washed twice with T-PBS for 5 min and treated with 1:500 diluted horseradish peroxidase (HRP)-labeled goat anti-mouse IgG (whole molecule; Sigma, St. Louis, MO, USA) antibody in T-PBS for 1 h with gentle shaking. Finally, the membrane was washed twice with T-PBS and once with PBS, and exposed to 1 mg/ml of freshly prepared 4-chloro-1-naphthol-0.03% H2O2 in PBS for 15 min at room temperature. The reaction was stopped by washing with distilled water, and the immunostained PES membrane was allowed to dry and then photographed. The positively stained areas were measured using Image J 1.46r (http://imageJ.nih.gov/ij)."}},
  "data": [
    {"compound": "CC1(C)[C@@H](O[C@H]2O[C@H](C(=O)O)[C@@H](O)[C@H](O)[C@H]2O[C@@H]2O[C@H](C(=O)O)[C@@H](O)[C@H](O)[C@H]2O)CC[C@]2(C)[C@H]3C(=O)C=C4[C@@H]5C[C@@](C)(C(=O)O)CC[C@]5(C)CC[C@@]4(C)[C@]3(C)CC[C@@H]12", "note": "[GL, glycyrrhizin, reference compound]", "values": [
      {"measurement": "cross-reactivity of anti-3MGA-mAb", "setting": "anti-3MGA-mAb [1]", "value": 0.23, "unit": "%"},
      {"measurement": "plasma concentration, day 0", "setting": "[2]; patient with licorice-induced pseudoaldosteronism, day 0", "value": "not detected"},
      {"measurement": "plasma concentration, day 5", "setting": "[2]; patient, 5 days after stopping the Kampo formula", "value": "not detected"},
      {"measurement": "area of positive staining in dot-blot", "setting": "anti-3MGA-mAb [3]", "value": "not detectable"}
    ]}
  ]
}
